{
  "source": "patent US10131652B2",
  "about": "“Pyrimidinyloxy benzene derivatives as herbicides” (E. I. DU PONT DE NEMOURS AND COMPANY, priority 2014, dated 2018)",
  "experiment_in_all_cases": "Test F pre-/postemergence plant response",
  "assay_type_in_all_cases": "in vivo",
  "key": {"[1]": {"test_system": "dayflower (Virginia (VA) dayflower, Commelina virginica)", "conditions": "Commelina virginica, scale 0 to 100, read-out: Plant response rating, Dayflower, VA", "method_in_brief": "(§1)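 Visual control ratings were scored 0 (no effect) to 100 (complete control) versus untreated plants after 14–21 greenhouse days. Compounds, formulated in a surfactant-containing non-phytotoxic solvent, were applied both to silt loam at planting (preemergence) and to 1- to 4-leaf plants 2–18 cm tall (postemergence).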"}, "corn (Zea mays)": {"test_system": "corn (Zea mays)", "conditions": "Zea mays, scale 0 to 100", "method_in_brief": "as §1"}, "[2]": {"test_system": "Italian ryegrass (Lolium multiflorum)", "conditions": "Lolium multiflorum, scale 0 to 100, read-out: Plant response rating, Ryegrass, Italian; for pest or weed control at 31 g/ha: 31 g ai/ha", "method_in_brief": "as §1"}, "[3]": {"test_system": "lambsquarters (Chenopodium album)", "conditions": "Chenopodium album, pre-emergence, Preemergence, scale 0 to 100, read-out: Plant response rating, Lambsquarters", "method_in_brief": "as §1"}, "[4]": {"test_system": "ragweed (common ragweed, Ambrosia elatior)", "conditions": "Ambrosia artemisiifolia, scale 0 to 100, read-out: Plant response rating, Ragweed", "method_in_brief": "as §1"}, "[5]": {"test_system": "barnyardgrass (Echinochloa crus-galli)", "conditions": "Echinochloa crus-galli, scale 0 to 100, read-out: Plant response rating, Barnyardgrass", "method_in_brief": "as §1"}, "[6]": {"test_system": "waterhemp (common waterhemp, Amaranthus rudis)", "conditions": "Amaranthus tuberculatus, scale 0 to 100, read-out: Plant response rating, Waterhemp", "method_in_brief": "as §1"}, "[7]": {"test_system": "arrowleaf sida (Sida rhombifolia)", "conditions": "Sida rhombifolia, scale 0 to 100, read-out: Plant response rating, Arrowleaf Sida", "method_in_brief": "as §1"}, "[8]": {"test_system": "sandbur (southern sandbur, Cenchrus echinatus)", "conditions": "Cenchrus echinatus, scale 0 to 100, read-out: Plant response rating, Sandbur", "method_in_brief": "as §1"}, "[9]": {"test_system": "goosegrass (Eleusine indica)", "conditions": "Eleusine indica, pre-emergence, scale 0 to 100, read-out: Plant response rating, Goosegrass", "method_in_brief": "as §1"}, "[10]": {"test_system": "surinam grass (Brachiaria decumbens)", "conditions": "Urochloa decumbens, pre-emergence, scale 0 to 100, read-out: Plant response rating, Surinam Grass", "method_in_brief": "as §1"}, "soybean (Glycine max)": {"test_system": "soybean (Glycine max)", "conditions": "Glycine max, scale 0 to 100, read-out: Plant response rating, Soybean", "method_in_brief": "as §1"}, "[11]": {"test_system": "palmer pigweed (Amaranthus palmeri)", "conditions": "Amaranthus palmeri, scale 0 to 100, read-out: Plant response rating, Pigweed, Palmer", "method_in_brief": "as §1"}, "[12]": {"test_system": "yellow nutsedge (Cyperus esculentus)", "conditions": "Cyperus, pre-emergence, scale 0 to 100, read-out: Plant response rating, Nutsedge, Yellow", "method_in_brief": "as §1"}, "[13]": {"test_system": "velvetleaf (Abutilon theophrasti)", "conditions": "Abutilon theophrasti, pre-emergence, scale 0 to 100, read-out: Plant response rating, Velvetleaf", "method_in_brief": "as §1"}, "[14]": {"test_system": "hairy beggarticks (Bidens pilosa)", "conditions": "Bidens pilosa, scale 0 to 100, read-out: Plant response rating, Beggarticks", "method_in_brief": "as §1"}, "[15]": {"conditions": "post-emergence, 31 g ai/ha Postemergence"}, "[16]": {"conditions": "pre-emergence, 31 g ai/ha Preemergence"}, "[17]": {"conditions": "pre-emergence, 62 g ai/ha Preemergence"}, "[18]": {"conditions": "post-emergence, 62 g ai/ha Postemergence"}},
  "note": "Like-named read-outs stand apart in the source and are kept apart here.",
  "data": [
    {"molecule": "Fc1cccc(Oc2ncc(Cl)cn2)c1-c1cc(C(F)F)on1", "note": "[Compound 55, 5-chloro-2-[2-[5-(difluoromethyl)-3-isoxazolyl]-3-fluorophenoxy]pyrimidine]", "values": [
      {"measurement": "pest or weed control at 31 g/ha", "setting": "[1]; [15]", "result": 70, "unit": "%"},
      {"measurement": "pest or weed control at 31 g/ha", "setting": "[1]; [16]", "result": 60, "unit": "%"},
      {"measurement": "pest or weed control at 62 g/ha", "setting": "[1]; [17]", "result": 40, "unit": "%"},
      {"measurement": "Corn plant response rating (crop injury, 0 = no effect, 100 = complete kill) at 31 g/ha", "setting": "corn (Zea mays); [15]", "result": 15, "unit": "%"},
      {"measurement": "Corn plant response rating (crop injury, 0 = no effect, 100 = complete kill) at 62 g/ha", "setting": "corn (Zea mays); [18]", "result": 20, "unit": "%"},
      {"measurement": "Corn plant response rating (crop injury, 0 = no effect, 100 = complete kill) at 31 g/ha", "setting": "corn (Zea mays); [16]", "result": 0, "unit": "%"},
      {"measurement": "Corn plant response rating (crop injury, 0 = no effect, 100 = complete kill) at 62 g/ha", "setting": "corn (Zea mays); [17]", "result": 40, "unit": "%"},
      {"measurement": "pest or weed control at 31 g/ha", "setting": "[2]; post-emergence, Postemergence", "result": 0, "unit": "%"},
      {"measurement": "pest or weed control at 62 g/ha", "setting": "[2]; post-emergence, 62 g ai/ha, Postemergence", "result": 10, "unit": "%"},
      {"measurement": "pest or weed control at 31 g/ha", "setting": "[2]; pre-emergence, Preemergence", "result": 0, "unit": "%"},
      {"measurement": "pest or weed control at 62 g/ha", "setting": "[2]; pre-emergence, Preemergence", "result": 30, "unit": "%"},
      {"measurement": "pest or weed control at 31 g/ha", "setting": "[3]; 31 g ai/ha", "result": 100, "unit": "%"},
      {"measurement": "pest or weed control at 62 g/ha", "setting": "[3]", "result": 100, "unit": "%"},
      {"measurement": "pest or weed control at 31 g/ha", "setting": "[4]; [15]", "result": 55, "unit": "%"},
      {"measurement": "pest or weed control at 62 g/ha", "setting": "[4]; [18]", "result": 55, "unit": "%"},
      {"measurement": "pest or weed control at 31 g/ha", "setting": "[4]; [16]", "result": 40, "unit": "%"},
      {"measurement": "pest or weed control at 62 g/ha", "setting": "[4]; pre-emergence, Preemergence", "result": 50, "unit": "%"},
      {"measurement": "pest or weed control at 31 g/ha", "setting": "[5]; [15]", "result": 50, "unit": "%"},
      {"measurement": "pest or weed control at 62 g/ha", "setting": "[5]; [18]", "result": 35, "unit": "%"},
      {"measurement": "pest or weed control at 31 g/ha", "setting": "[5]; [16]", "result": 10, "unit": "%"},
      {"measurement": "pest or weed control at 62 g/ha", "setting": "[5]; [17]", "result": 85, "unit": "%"},
      {"measurement": "pest or weed control at 31 g/ha", "setting": "[6]; [15]", "result": 90, "unit": "%"},
      {"measurement": "pest or weed control at 62 g/ha", "setting": "[6]; [18]", "result": 100, "unit": "%"},
      {"measurement": "pest or weed control at 31 g/ha", "setting": "[6]; [16]", "result": 100, "unit": "%"},
      {"measurement": "pest or weed control at 62 g/ha", "setting": "[6]; pre-emergence, Preemergence", "result": 100, "unit": "%"},
      {"measurement": "pest or weed control at 31 g/ha", "setting": "[7]; [15]", "result": 95, "unit": "%"},
      {"measurement": "pest or weed control at 62 g/ha", "setting": "[7]; [18]", "result": 100, "unit": "%"},
      {"measurement": "pest or weed control at 31 g/ha", "setting": "[7]; [16]", "result": 98, "unit": "%"},
      {"measurement": "pest or weed control at 62 g/ha", "setting": "[7]; [17]", "result": 100, "unit": "%"},
      {"measurement": "pest or weed control at 31 g/ha", "setting": "[8]; [15]", "result": 25, "unit": "%"},
      {"measurement": "pest or weed control at 62 g/ha", "setting": "[8]; [18]", "result": 15, "unit": "%"},
      {"measurement": "pest or weed control at 31 g/ha", "setting": "[8]; [16]", "result": 0, "unit": "%"},
      {"measurement": "pest or weed control at 62 g/ha", "setting": "[8]; pre-emergence, Preemergence", "result": 0, "unit": "%"},
      {"measurement": "pest or weed control at 31 g/ha", "setting": "[9]; 31 g ai/ha Preemergence", "result": 5, "unit": "%"},
      {"measurement": "pest or weed control at 62 g/ha", "setting": "[9]; Preemergence", "result": 50, "unit": "%"},
      {"measurement": "pest or weed control at 31 g/ha", "setting": "[10]; 31 g ai/ha Preemergence", "result": 0, "unit": "%"},
      {"measurement": "pest or weed control at 62 g/ha", "setting": "[10]; Preemergence", "result": 10, "unit": "%"},
      {"measurement": "plant injury at 31 g/ha", "setting": "soybean (Glycine max); [15]", "result": 70, "unit": "%"},
      {"measurement": "plant injury at 62 g/ha", "setting": "soybean (Glycine max); [18]", "result": 95, "unit": "%"},
      {"measurement": "plant injury at 31 g/ha", "setting": "soybean (Glycine max); [16]", "result": 40, "unit": "%"},
      {"measurement": "plant injury at 62 g/ha", "setting": "soybean (Glycine max); pre-emergence, Preemergence", "result": 50, "unit": "%"},
      {"measurement": "pest or weed control at 31 g/ha", "setting": "[11]; [15]", "result": 98, "unit": "%"},
      {"measurement": "pest or weed control at 62 g/ha", "setting": "[11]; [18]", "result": 98, "unit": "%"},
      {"measurement": "pest or weed control at 31 g/ha", "setting": "[11]; [16]", "result": 75, "unit": "%"},
      {"measurement": "pest or weed control at 62 g/ha", "setting": "[11]; pre-emergence, Preemergence", "result": 100, "unit": "%"},
      {"measurement": "pest or weed control at 31 g/ha", "setting": "[12]; 31 g ai/ha Preemergence", "result": 0, "unit": "%"},
      {"measurement": "pest or weed control at 62 g/ha", "setting": "[12]; Preemergence", "result": 0, "unit": "%"},
      {"measurement": "pest or weed control at 31 g/ha", "setting": "[13]; 31 g ai/ha Preemergence", "result": 100, "unit": "%"},
      {"measurement": "pest or weed control at 62 g/ha", "setting": "[13]; Preemergence", "result": 100, "unit": "%"},
      {"measurement": "pest or weed control at 31 g/ha", "setting": "[14]; [15]", "result": 55, "unit": "%"},
      {"measurement": "pest or weed control at 62 g/ha", "setting": "[14]; [18]", "result": 70, "unit": "%"},
      {"measurement": "pest or weed control at 31 g/ha", "setting": "[14]; [16]", "result": 0, "unit": "%"},
      {"measurement": "pest or weed control at 62 g/ha", "setting": "[14]; [17]", "result": 0, "unit": "%"}
    ]}
  ]
}
